Experiment [1] deals with collagenase (MMP-1). Kind of experiment: Collagenase (MMP-1) expression inhibition test in human fibroblasts. Format: cell-based. To be noted: 10 μg/mL in serum-free DMEM, 24 hours, relative to untreated group. The protocol:
In order to investigate the antiaging activity of the extract of the Aritaunkong bred in Example 1, the collagenase (MMP-1) expression-inhibiting effect of each of the soybean extracts prepared in Preparation Example was assessed. Specifically, after placing human fibroblasts (Cascade Biologics, Portland, OR, USA) on a 96-well microtiter plate containing DMEM (Dulbecco's modified Eagle's medium) supplemented with 2.5 wt % of fetal bovine serum at 5,000 cells/well, the cells were cultured until ˜90% confluency. Then, after culturing the cells in serum-free DMEM for 24 hours and treating with each of the three soybean extracts of Preparation Example or EGCG (Sigma-Aldrich) as a positive control group, dissolved in serum-free DMEM to 10 μg/mL, for 24 hours, the cell culture was collected. Subsequently, the degree of collagenase production in the collected cell culture was measured using a collagenase measurement kit (Amersham Pharmacia, USA). First, after placing the collected cell culture on a 96-well plate on which a primary collagenase antibody is coated uniformly, antigen-antibody reaction was conducted for 3 hours in a constant-temperature bath (36° C.). […] Collagenase expression inhibition (%)=(1−absorbance of substance-treated cell group/absorbance of control group)×100 [Equation 1]

Experiment [2] can be described thus: Antioxidant activity test through DPPH reduction (DPPH radical-scavenging ability). Format: biochemical. To be noted: 100 μM DPPH in ethanol, 37° C. for 30 minutes, absorbance at 540 nm; sample concentration at which absorbance decreased by 50%. How it is done:
In order to investigate the antioxidant activity of the extract of the Aritaunkong bred in Example 1, the DPPH (1,1-diphenyl-2-picrylhydrazyl) oxidation-inhibiting effect of each soybean extract prepared in Preparation Example was compared by monitoring the change in absorbance occurring as a result of reduction of DPPH. Specifically, after preparing 190 μL of a 100 μM (in ethanol) DPPH solution and the soybean extract of Preparation Example and the synthetic antioxidant Trolox (positive control group) to a concentration of 10,000 ppm, they were diluted to final concentrations of 500 ppm, 250 ppm, 125 ppm, 62.5 ppm, 31.25 ppm and 15.63 ppm. After preparing […] reaction solutions by mixing them, absorbance was measured at 540 nm after incubation at 37° C. for 30 minutes. The IC50 indicates the sample concentration when the absorbance was decreased by 50% due to the addition of the sample.
On the technique in general: Loss of DPPH colour is used to gauge radical scavenging.

Molecules are shown by their SMILES.

On to `O=C(O[C@@H]1Cc2c(O)cc(O)cc2O[C@@H]1c1cc(O)c(O)c(O)c1)c1cc(O)c(O)c(O)c1` [EGCG], for which, in experiment [1], the “Collagenase expression inhibition (%)” value is on record as 60.8%.
`Cc1c(C)c2c(c(C)c1O)CCC(C)(C(=O)O)O2` (centres unmarked) [Trolox]: the “DPPH radical-scavenging ability (IC50)” value in experiment [2] is listed as 53.2 ppm.

Source of the values: US12302841B2, “Soybean variety comprising high content of epicatechin” (AMOREPACIFIC CORPORATION, priority 2020, dated 2025).
